The results in this text go back to patent US20150011541A1, “PIPECOLATE-SULFONAMIDES FOR TREATMENT OF PSYCHIATRIC DISORDERS” (Max-Planck-Gesellschaft zur Förderung der Wissenschaften …, priority 2011, published 2015).

Where two headings read alike, the source gives them in different places. Some results are limits rather than exact numbers.

In test [1] the target is T1, human FKBP51FK1 (Homo sapiens, UniProt Q13451).
T1 sequence (Q13451 42-130 limits assumed): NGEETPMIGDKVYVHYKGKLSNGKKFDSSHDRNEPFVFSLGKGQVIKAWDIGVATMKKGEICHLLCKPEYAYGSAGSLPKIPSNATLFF
Nature of the test: Fluorescence polarization assay, binding to FK1 domain of FKBP51. To be noted: for IC50: binding affinity, fluorescence polarization assay; for inhibition at 5 µM: read-out: FKBP 51 FK1 % inhibition. (Polarisation of emitted light reports the rotation of a fluorescent probe.)

The target in test [2] is T2, human FKBP52FK1 (Homo sapiens, UniProt Q02790).
T2 sequence (Q02790 50-138 limits assumed): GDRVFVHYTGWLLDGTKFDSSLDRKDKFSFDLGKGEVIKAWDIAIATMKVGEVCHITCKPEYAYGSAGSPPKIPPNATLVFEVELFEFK
Nature of the test: Fluorescence polarization assay, binding to FK1 domain of FKBP52. Particulars: for IC50: binding affinity, fluorescence polarization assay; for inhibition at 5 µM: at a concentration of 5 μM, library testing, read-out: FKBP52 FK1 % inhibition.

Where [3] appears, read: at a concentration of 5 μM, library testing.

What is called IC50 is the concentration at which inhibition is half-maximal. High values mean weaker potency, low ones greater potency. Regarding `CCOC(=O)C1CCCCN1S(=O)(=O)Cc1ccccc1` (centres unmarked) [Ref. 1, Ethyl 1-(benzylsulfonyl)piperidine-2-carboxylate, reference compound], the IC50 in test [1] and in test [2] was more than 100 µM throughout.

For orientation: inhibition means how much of the control response was suppressed. As to `COc1ccc(CC[C@@H](OC(=O)[C@@H]2CCCCN2S(=O)(=O)c2ccc3c(ccn3C)c2)c2cccc(OCC(=O)O)c2)cc1OC` [Compound 50, 2-(3-((R)-3-(3,4-dimethoxyphenyl)-1-((S)-1-(1-methyl-1H-indol-5-ylsulfonyl)piperidine-2-carbonyloxy)propyl)phenoxy)acetic acid], the inhibition at 5 µM in test [1] (setting [3]) stood at 10%; in test [2], 10.4%.

Turning to `COc1ccc(CC[C@@H](OC(=O)[C@@H]2CCCCN2S(=O)(=O)c2ccoc2)c2cccc(OCC(=O)O)c2)cc1OC` [Compound 53, 2-(3-((R)-3-(3,4-dimethoxyphenyl)-1-((S)-1-(furan-3-ylsulfonyl)piperidine-2-carbonyloxy)propyl)phenoxy)acetic acid], the inhibition at 5 µM in test [1] is 2%; in test [2], 5.7%.

For `COc1ccc(CC[C@@H](OC(=O)[C@@H]2CCCCN2S(=O)(=O)c2ccc(-c3ccccc3)nc2)c2cccc(OCC(=O)O)c2)cc1OC` [Compound 44, 2-(3-((R)-3-(3,4-dimethoxyphenyl)-1-((S)-1-(6-phenylpyridin-3-ylsulfonyl)piperidine-2-carbonyloxy)propyl)phenoxy)acetic acid], the inhibition at 5 µM in test [1] (setting [3]) was 2.6%; in test [2] it was 8.5%.

For `COc1ccc(CC[C@@H](OC(=O)[C@@H]2CCCCN2S(=O)(=O)c2cc(Cl)c(NC(C)=O)c(Cl)c2)c2cccc(OCC(=O)O)c2)cc1OC` [Compound 23, 2-(3-((R)-1-((S)-1-(4-acetamido-3,5-dichlorophenylsulfonyl)piperidine-2-carbonyloxy)-3-(3,4-dimethoxyphenyl)propyl)phenoxy)acetic acid], the IC50 in test [1] came to 8.9 ± 0.9 µM; in test [2], 15.6 ± 2.2 µM.

For the molecule `COc1ccc(CC[C@@H](OC(=O)[C@@H]2CCCCN2S(=O)(=O)c2ccc3nc(C)sc3c2)c2cccc(OCC(=O)O)c2)cc1OC` [Compound 27, 2-(3-((R)-3-(3,4-dimethoxyphenyl)-1-((S)-1-(2-methylbenzo[d]thiazol-6-ylsulfonyl)piperidine-2-carbonyloxy)propyl)phenoxy)acetic acid], the IC50 in test [1] came to 18.4 ± 1.4 µM; in test [2] it was 26.5 ± 4.9 µM.

For the molecule `COc1ccc(CC[C@@H](OC(=O)[C@@H]2CCCCN2S(=O)(=O)c2cc(Cl)c(NC(C)=O)c(Cl)c2)c2cccc(OCCN3CCOCC3)c2)cc1OC` [Compound 34, (S)-((R)-3-(3,4-dimethoxyphenyl)-1-(3-(2-morpholinoethoxy)phenyl)propyl)1-(4-acetamido-3,5-dichlorophenylsulfonyl)piperidine-2-carboxylate], the IC50 is 12.3 ± 18.9 µM in test [1] and 8.3 ± 6.8 µM in test [2].

`COc1ccc(CC[C@@H](OC(=O)[C@@H]2CCCCN2S(=O)(=O)c2ccc(C(F)(F)F)cc2)c2cccc(OCC(=O)O)c2)cc1OC` [Compound 40, 2-(3-((R)-3-(3,4-dimethoxyphenyl)-1-((S)-1-(4-(trifluoromethyl)phenylsulfonyl)piperidine-2-carbonyloxy)propyl)phenoxy)acetic acid]: the inhibition at 5 µM in test [1] (setting [3]) turned out to be 8.9%; in test [2] it was 12.3%.

With `COc1ccc(CC[C@@H](OC(=O)[C@@H]2CCCCN2S(=O)(=O)c2cccc(Br)c2)c2cccc(OCC(=O)O)c2)cc1OC` [Compound 12, 2-(3-((R)-1-((S)-1-(3-bromophenylsulfonyl)piperidine-2-carbonyloxy)-3-(3,4-dimethoxyphenyl)propyl)phenoxy)acetic acid], the figures for the IC50 in test [1] and in test [2] were 3.06 ± 0.25 µM and 17.1 ± 11 µM, respectively.

Consider `COc1ccc(CC[C@@H](OC(=O)[C@@H]2CCCCN2S(=O)(=O)c2cc3ccccc3s2)c2cccc(OCC(=O)O)c2)cc1OC` [Compound 5], for which the inhibition at 5 µM was 12.4% in test [1] (setting [3]) and 15.2% in test [2]. In test [1], this molecule had an IC50 of 67.1 ± 12.1 µM.

As to `COc1ccc(CC[C@@H](OC(=O)[C@@H]2CCCCN2S(=O)(=O)c2ccccc2Cl)c2cccc(OCC(=O)O)c2)cc1OC` [Compound 45, 2-(3-((R)-1-((S)-1-(2-chlorophenylsulfonyl)piperidine-2-carbonyloxy)-3-(3,4-dimethoxyphenyl)propyl)phenoxy)acetic acid], the inhibition at 5 µM in test [1] (setting [3]) worked out at 1.4%; in test [2], 9.5%.
